Test: Estimate of skin flux required to deliver therapeutically effective amounts of alprazolam transdermally
Conditions: practical skin area (less than about 100 cm^2); estimated from published pharmacokinetic data
Experimental: Based on the published pharmacokinetic data on alprazolam, applicants estimated that skin flux in the range of at least about 1 μg/cm^2 /hr would be required to deliver therapeutically effective amounts of alprazolam transdermally through a practical skin area (i.e., less than about 100 cm^2). However, when applicants measured the in vitro flux of alprazolam through skin from a propylene glycol solution, they found the flux was several-fold less than the flux required to deliver a therapeutic amount of the drug through such an area of skin. […]

In the case of `Cc1nnc2n1-c1ccc(Cl)cc1C(c1ccccc1)=NC2` [Alprazolam, 8-chloro-1-methyl-6-phenyl-4H-1,2,4-triazolo(4,3-a)(1,4)benzodiazepine], the “skin flux required to deliver therapeutically effective amounts transdermally” value is reported as “at least 1 μg/cm^2 /hr”.

— patent publication US5378473A, “Transdermal administration of short or intermediate half-life benzodiazepines” (Cygnus Therapeutic Systems, priority 1993, dated 1995)
